From US20090105124A1, “HETEROCYCLIC MODULATORS OF TGR5” (Kalypsys, Inc., priority 2007, published 2009) come the findings set out here.

pEC50: −log10 of the molar value.

For this experiment, the target named is T1, human TGR5 (Homo sapiens, UniProt Q8TDU6).
T1 construct: expressed in transfected cells
T1 sequence (Q8TDU6 1-330): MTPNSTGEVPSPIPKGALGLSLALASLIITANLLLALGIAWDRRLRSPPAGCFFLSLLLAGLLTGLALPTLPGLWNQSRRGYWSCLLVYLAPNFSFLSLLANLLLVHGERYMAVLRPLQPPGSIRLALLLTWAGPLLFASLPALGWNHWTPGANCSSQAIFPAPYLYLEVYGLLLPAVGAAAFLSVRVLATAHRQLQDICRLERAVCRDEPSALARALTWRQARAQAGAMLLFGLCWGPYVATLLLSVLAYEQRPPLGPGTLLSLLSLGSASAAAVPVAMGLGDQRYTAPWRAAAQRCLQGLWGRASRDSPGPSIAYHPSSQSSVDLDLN
Briefly: cAMP production assay in HEK293 cells stably expressing TGR5 (LANCE cAMP, TR-FRET). The format is cell-based. Conditions: stimulated with test compounds for 30 minutes, 1 mM IBMX, read-out: cAMP Production in 293-TGR5 Cells. How it is done:
HEK293 cells stably expressing TGR5 (HEK293-TGR5) were established by stably transfecting HEK-293 cells with an expression vector (pcDNA 3.1, Invetrogen) inserted with human TGR5 cDNA using Fugene6 (Roche, Indianapolis, Ind.) according to conventional methods. Cells were grown in DMEM (invitrogen, Carlsbad, Calif.) supplemented with 10% FBS, 1% penicillin/streptomycin under geneticin selection. The presence of TGR5 transcripts in these cells was confirmed using branched DNA (bDNA, Genospectra, Inc., Fremont Calif.) following the manufacturer's protocol and using specific probes for human TGR5. cAMP production assay was performed in high throughput 1536 well format using LANCE cAMP detection kit (Perkin Elmer Inc., Boston, Mass.) according to the manufacturer's protocol. Briefly, HEK293-TGR5 cells were harvested using non-enzymatic cell dissociation buffer (Invitrogen, Carlsbad, Calif.) and suspended in DMEM supplemented with 0.1% FBS at a density of 800,000 cells/ml. Alexa antibody was added to the cell suspension, and 4 ul of the mixture was dispensed in white opaque tissue culture treated Greiner 1536 well plates (USA Scientific, Inc., Ocala, Fla.). After an overnight incubation at 37 C in an atmosphere of 10% CO2 and 95% humidity, 1 ul of 5 mM IBMX (Sigma, St. Louis, Mo.) solution in DMEM was dispensed for a final concentration of 1 mM. Cells were then stimulated with test compounds for 30 minutes, after which time 5 ul of detection reagent was added and incubated for 1-7 hrs at room temperature. TR-FRET signal was detected using the Viewlux (Perkin Elmer Inc., Boston Mass.). EC50 values were determined using Graph Pad Prizm analysis (GraphPad Software, Inc). The EC50 values for a wide range of bile acids generated from this assay were in agreement with the values published in the scientific literature. […] The symbol (+) denotes an EC50 value of ≦10 μM while the symbol (−) denotes an EC50 value of >10 μM (see Table 1).
(Changes in cAMP serve as a functional read-out for many G protein-coupled receptors.)
With `O=c1c2ccsc2nc(-c2ccc(F)cc2)n1NCc1ccc(Cl)c(Cl)c1` [Example 33, 3-{[(3,4-Dichlorophenyl)methyl]amino}-2-(4-fluorophenyl)-3H,4H-thieno[2,3-d]pyrimidin-4-one], the pEC50 was not below 5.00.
For `COc1cncc(-c2nc3sccc3c(=O)n2NCc2ccc(Cl)cc2)c1` [Example 34, 3-{[(4-Chlorophenyl)methyl]amino}-2-(5-methoxypyridin-3-yl)-3H,4H-thieno[2,3-d]pyrimidin-4-one], the pEC50 was not below 5.00.
Next, `O=c1c2sccc2nc(-c2ccc(F)cc2)n1NCc1ccc(Br)cc1` [Example 35, 3-{[(4-Bromophenyl)methyl]amino}-2-(4-fluorophenyl)-3H,4H-thieno[3,2-d]pyrimidin-4-one]: not below 5.00; `O=c1c2sccc2nc(-c2ccc(F)cc2)n1NCc1ccc(Cl)c(Cl)c1` [Example 36, 3-{[(3,4-Dichlorophenyl)methyl]amino}-2-(4-fluorophenyl)-3H,4H-thieno[3,2-d]pyrimidin-4-one]: not below 5.00; `O=c1c2sccc2nc(-c2ccc(F)cc2)n1NCc1ccc(Cl)cc1` [Example 37, 3-{[(4-Chlorophenyl)methyl]amino}-2-(4-fluorophenyl)-3H,4H-thieno[3,2-d]pyrimidin-4-one]: not below 5.00.
Next, `Cn1cnc2nc(-c3ccc(F)cc3)n(NCc3ccc(Br)cc3)c(=O)c21` [Example 38, 1-{[(4-Bromophenyl)methyl]amino}-2-(4-fluorophenyl)-7-methyl-6,7-dihydro-1H-purin-6-one]: not below 5.00.
For `Cn1cnc2nc(-c3ccc(F)cc3)n(NCc3ccc(Cl)cc3)c(=O)c21` [Example 39, 1-{[(4-Chlorophenyl)methyl]amino}-2-(4-fluorophenyl)-7-methyl-6,7-dihydro-1H-purin-6-one], the pEC50 is not below 5.00.
In the case of `Cn1ncc2nc(-c3ccc(F)cc3)n(NCc3ccc(Br)cc3)c(=O)c21` [Example 40, 6-{[(4-Bromophenyl)methyl]amino}-5-(4-fluorophenyl)-1-methyl-1H,6H,7H-pyrazolo[4,3-d]pyrimidin-7-one], the pEC50 was not below 5.00.
Take `Cn1ncc2nc(-c3ccc(F)cc3)n(NCc3ccc(Cl)cc3)c(=O)c21` [Example 41, 6-{[(4-Chlorophenyl)methyl]amino}-5-(4-fluorophenyl)-1-methyl-1H,6H,7H-pyrazolo[4,3-d]pyrimidin-7-one]: the pEC50 is not below 5.00.
Consider `Cn1ncc2nc(-c3ccc(F)cc3)n(NCc3ccc(F)c(F)c3)c(=O)c21` [Example 42, 6-{[(3,4-Difluorophenyl)methyl]amino}-5-(4-fluorophenyl)-1-methyl-1H,6H,7H-pyrazolo[4,3-d]pyrimidin-7-one], for which the pEC50 was less than 5.00.
Next, `O=c1c2nccnc2nc(-c2ccc(F)cc2)n1NCc1ccc(Cl)cc1` [Example 43, 3-{[(4-Chlorophenyl)methyl]amino}-2-(4-fluorophenyl)-3,4-dihydropteridin-4-one]: not below 5.00; `N#Cc1ccc(CNn2c(-c3ccc(F)cc3)nc3nccnc3c2=O)cc1` [Example 44, 4-({[2-(4-Fluorophenyl)-4-oxo-3,4-dihydropteridin-3-yl]amino}methyl)benzonitrile]: not below 5.00.
Next, `O=c1c2nccnc2nc(-c2ccc(F)cc2)n1NCc1ccc(Cl)c(F)c1` [Example 45, 3-{[(4-Chloro-3-fluorophenyl)methyl]amino}-2-(4-fluorophenyl)-3,4-dihydropteridin-4-one]: not below 5.00; `O=c1c2nccnc2nc(-c2ccc(F)cc2)n1NCc1ccc(Cl)cc1F` [Example 46, 3-{[(4-Chloro-2-fluorophenyl)methyl]amino}-2-(4-fluorophenyl)-3,4-dihydropteridin-4-one]: not below 5.00.
Next, `Cc1cncc(-c2nc3nccnc3c(=O)n2NCc2ccc(Cl)cc2)c1` [Example 47, 3-{[(4-Chlorophenyl)methyl]amino}-2-(5-methylpyridin-3-yl)-3,4-dihydropteridin-4-one]: not below 5.00; `Cc1cncc(-c2nc3nccnc3c(=O)n2NCc2ccc(C#N)cc2)c1` [Example 48, 4-({[2-(5-Methylpyridin-3-yl)-4-oxo-3,4-dihydropteridin-3-yl]amino}methyl)benzonitrile]: not below 5.00; `O=c1c2nccnc2nc(-c2cncc(Cl)c2)n1NCc1ccc(Cl)cc1` [Example 49, 3-{[(4-Chlorophenyl)methyl]amino}-2-(5-chloropyridin-3-yl)-3,4-dihydropteridin-4-one]: not below 5.00.
Consider `O=c1c2nccnc2nc(-c2ccc(F)cc2)n1/N=C/c1ccc(Br)cc1` [Example 50, 3-[(E)-[(4-Bromophenyl)methylidene]amino]-2-(4-fluorophenyl)-3,4-dihydropteridin-4-one], for which the pEC50 is less than 5.00.
For `O=c1c2c(nc(-c3ccc(F)cc3)n1NCc1ccc(Br)cc1)CNCC2` [Example 51, 3-{[(4-Bromophenyl)methyl]amino}-2-(4-fluorophenyl)-3H,4H,5H,6H,7H,8H-pyrido[3,4-d]pyrimidin-4-one] the value was less than 5.00.
